Consider 18 compounds from publication PMC12724327, “Structure-guided discovery of a small molecule inhibitor of SARS-CoV-2 main protease with potent in vitro and in vivo antiviral activities” (Journal of Virology, 2025).

The target of one data set is SARS-CoV-2 M^pro (Severe acute respiratory syndrome coronavirus 2, UniProt P0DTD1). The data set is described as follows: biochemical. Particulars: for IC50: 150 nM enzyme, 30 min pre-incubation at 37°C. The data set is classed as biochemical.
The next data set has as its target T1, Cathepsin B (Homo sapiens, UniProt P07858).
T1 construct: purchased BioVision K147-100
The data set is described as follows: Selectivity assay, Cathepsin B inhibitor screening kit. It is filed as biochemical. On the procedure: (§1) The biochemical activity against several common human cysteine proteases was assessed using Cathepsin B inhibitor screening kit (BioVision, K147-100), Cathepsin L inhibitor screening kit (BioVision, K161-100), and Caspase 2 inhibitor drug screening kit (BioVision, K152-100) following the manufacturer’s instructions.

In data set [1] the test system is SARS-CoV-2. In words: Antiviral activity in human lung Calu-3 cells. The data set is classed as cell-based. Particulars: Severe acute respiratory syndrome coronavirus 2.
The next data set concerns the target T2, Caspase 2 (Homo sapiens, UniProt P42575).
T2 construct: purchased BioVision K152-100
The data set is described as follows: Selectivity assay, Caspase 2 inhibitor drug screening kit. The data set is classed as biochemical. On the procedure:
as §1

Data set [2] relates to SARS-CoV-2 Alpha strain (B.1.1.7). The data set is classed as in vivo, K18-hACE2 mice.
A further data set has as its system VeroE6-TMPRSS2 cells. Conditions: 48 h, CellTiter-Glo.
Another data set has as its target T3, Cathepsin L (Homo sapiens, UniProt P07711).
T3 construct: purchased BioVision K161-100
In words: Selectivity assay, Cathepsin L inhibitor screening kit. It is filed as biochemical. On the procedure: as §1

Data set [3] has as its system SARS-CoV-2. In words: In vivo antiviral evaluation in the golden Syrian hamster model.
The subject of a further data set is SARS-CoV-2 EG.5.1. The data set is described as follows: Viral load reduction assay in VeroE6-TMPRSS2 cells, EG.5.1. The data set is classed as cell-based.
The test system of a further data set is SARS-CoV-2 XBB.1.5. The data set is described as follows: Viral load reduction assay in VeroE6-TMPRSS2 cells, XBB.1.5. The data set is classed as cell-based.
Another data set deals with WT SARS-CoV-2 HKU-001a. It is filed as cell-based.
Data set [4] concerns SARS-CoV-2 B.1.617.2/Delta. In words: Viral load reduction assay in VeroE6-TMPRSS2 cells, Delta. The data set is classed as cell-based.
In another data set the test system is SARS-CoV-2 B.1.1.7/Alpha. The data set is described as follows: Viral load reduction assay in VeroE6-TMPRSS2 cells, Alpha. It is filed as cell-based.
The conditions of data set [5]: 300 mg/kg/day for three days, body weight recorded 14 days, no virus infection.
Data set [6] has as its system SARS-CoV-2 Omicron BA.5.2. The data set is described as follows: Viral load reduction assay in VeroE6-TMPRSS2 cells, BA.5.2. The data set is classed as cell-based.
The test system of another data set is SARS-CoV-2 JN.1.1. The data set is described as follows: Viral load reduction assay in VeroE6-TMPRSS2 cells, JN.1.1. It is filed as cell-based.

Where two headings read alike, the source gives them in different places.

T3 sequence (P07711 114-333): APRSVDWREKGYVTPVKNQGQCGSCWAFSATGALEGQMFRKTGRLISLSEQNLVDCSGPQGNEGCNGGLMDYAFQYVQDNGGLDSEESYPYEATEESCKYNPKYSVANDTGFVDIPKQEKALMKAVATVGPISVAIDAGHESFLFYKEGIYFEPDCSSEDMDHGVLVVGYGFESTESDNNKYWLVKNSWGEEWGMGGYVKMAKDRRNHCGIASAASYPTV
T2 sequence (P42575 348-452): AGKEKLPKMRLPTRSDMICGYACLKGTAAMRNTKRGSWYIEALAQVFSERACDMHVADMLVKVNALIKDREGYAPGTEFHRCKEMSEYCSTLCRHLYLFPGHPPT
T2 sequence (P42575 170-325): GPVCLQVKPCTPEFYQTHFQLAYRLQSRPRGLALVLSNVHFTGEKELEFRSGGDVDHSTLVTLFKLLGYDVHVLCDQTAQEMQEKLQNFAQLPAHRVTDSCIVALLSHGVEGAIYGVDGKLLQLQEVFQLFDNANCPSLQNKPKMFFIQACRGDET

On to `CC(C)(C)OC(=O)N[C@H](C(=O)N[C@@H](Cc1ccccc1)C(=O)N[C@H](C#N)C[C@@H]1CCNC1=O)C(C)(C)C` [H109], for which inhibition at SARS-CoV-2 M^pro (mean ± SEM) was half-maximal at 407 ± 5.6 nM (IC50).

Take `CC(C)(C)OC(=O)N[C@H](C(=O)N1C[C@H](OC(F)F)C[C@H]1C(=O)N[C@H](C#N)C[C@@H]1CCNC1=O)C(C)(C)C` [H117]: on SARS-CoV-2 M^pro (mean ± SEM), the IC50 was 151 ± 5.2 nM.

On SARS-CoV-2 M^pro (mean ± SEM), `CC(C)(C)OC(=O)N[C@H](C(=O)N1C[C@H](OC(C)(C)C)C[C@H]1C(=O)N[C@H](C#N)C[C@@H]1CCNC1=O)C(C)(C)C` [H118] returned an IC50 of 310 ± 18.9 nM.

On SARS-CoV-2 M^pro (mean ± SEM), `CN(C(=O)[C@@H](NC(=O)OC(C)(C)C)C(C)(C)C)[C@@H](Cc1ccccc1)C(=O)N[C@H](C#N)C[C@@H]1CCNC1=O` [H119] registered an IC50 of 625 ± 10.5 nM. For the same compound, on SARS-CoV-2 M^pro (relative to H109), the “decrease in enzyme inhibitory activity” value was determined as 1.5 fold.

Consider `CC(C)(C)OC(=O)N[C@H](C(=O)N1C[C@H](OC(F)(F)F)C[C@H]1C(=O)N[C@H](C#N)C[C@@H]1CCNC1=O)C(C)(C)C` [H121], for which the IC50 on SARS-CoV-2 M^pro (mean ± SEM) was 68.6 ± 2 nM.

Regarding `CC(C)(C)[C@H](NC(=O)C(F)(F)F)C(=O)N1C[C@H](OC(F)F)C[C@H]1C(=O)N[C@H](C#N)C[C@@H]1CCNC1=O` [H122], the IC50 against SARS-CoV-2 M^pro (mean ± SEM) came out at 106 ± 2.8 nM.

Turning to `CC(C)(C)[C@H](NC(=O)C1CCC(F)(F)CC1)C(=O)N1C[C@H](OC(F)F)C[C@H]1C(=O)N[C@H](C#N)C[C@@H]1CCNC1=O` [H123], it took 860.9 ± 5.1 nM to reach half-maximal inhibition against SARS-CoV-2 M^pro (mean ± SEM) (IC50).

In turn, `CC(C)(C)[C@H](NC(=O)C1(F)CC1)C(=O)N1C[C@H](OC(F)F)C[C@H]1C(=O)N[C@H](C#N)C[C@@H]1CCNC1=O` [H124] showed an IC50 against SARS-CoV-2 M^pro (mean ± SEM) of 102 ± 2 nM. Against the preceding compound, the IC50 is about 8.4-fold lower.

Take `CC(C)(C)[C@H](NC(=O)N1CC2(COC2)C1)C(=O)N1C[C@H](OC(F)F)C[C@H]1C(=O)N[C@H](C#N)C[C@@H]1CCNC1=O` [H129]: the midpoint of inhibition against SARS-CoV-2 M^pro (mean ± SEM), the IC50, lay at 924 nM.

Regarding `CC(C)(C)OC(=O)N[C@H](C(=O)N1C[C@H](OC(F)F)C[C@H]1C(=O)N[C@H](C#N)C[C@@H]1CCNC1=O)C1CCCCC1` [H130], at SARS-CoV-2 M^pro (mean ± SEM), it took 70.1 ± 2.8 nM to reach half-maximal inhibition (IC50).

For the compound `CC(C)(C)OC(=O)N[C@H](C(=O)N1C[C@H](OC(F)F)C[C@H]1C(=O)N[C@H](C#N)C[C@@H]1CCNC1=O)C1CCCC1` [H131], the midpoint of inhibition on SARS-CoV-2 M^pro (mean ± SEM), the IC50, lay at 79.2 ± 2.1 nM.

As for `N#C[C@H](C[C@@H]1CCNC1=O)NC(=O)[C@@H]1C[C@@H](OC(F)(F)F)CN1C(=O)[C@@H](NC(=O)C1(F)CC1)C1CCCCC1` [H135], the IC50 against Cathepsin B is greater than 100000 nM; against Caspase 2, greater than 100000 nM; at Cathepsin L, greater than 100000 nM; at SARS-CoV-2 M^pro (mean ± SEM) it was 12.7 ± 0.1 nM. This compound gave an EC50 with SARS-CoV-2 [1] of 122 ± 13 nM. Also, in [2] (mouse, in vivo), the “body weight of infected mice” value is reported as “less body weight loss”. This compound also showed a delayed death in data set [2] (mouse, in vivo) of 0.6 day/mouse. The compound also had a fatality rate in data set [2] (mouse, in vivo) of 100%. Also, in data set [2] (mouse, in vivo), the “reduction of SARS-CoV-2 live virus titers in mouse lung” value is on record as “more than 2 logs10”. Moreover, the “dose up to which no cytotoxicity was found” value in the data set on VeroE6-TMPRSS2 cells is recorded as no less than 400 µM. Moreover, the Ki on SARS-CoV-2 M^pro (read-out: inhibitory constant (Ki)) was determined as 156 nM. In addition, the “SARS-CoV-2 M^pro inhibitory potency enhanced” value on SARS-CoV-2 M^pro (relative to hit compound H109) was found to be 32 folds. In addition, in the data set with SARS-CoV-2 [3] (hamster, in vivo), the “decrease of viral RNA copies in lung” value was ~ 0.7 log. Besides, the “decrease of viral RNA copies in trachea” value in the data set with SARS-CoV-2 [3] (hamster, in vivo) is ~ 0.65 log. The “live virus titer in hamster lungs” value in the data set on SARS-CoV-2 [3] (hamster, in vivo) is listed as “significantly reduced”. Moreover, the “decrease of viral yield in cell culture supernatant” value was “more than 5 log10” in the data set on SARS-CoV-2 EG.5.1; “more than 5 log10” with SARS-CoV-2 XBB.1.5; ~ 7 log10 in the data set on WT SARS-CoV-2 HKU-001a; “more than 5 log10” in data set [4]; “more than 5 log10” with SARS-CoV-2 B.1.1.7/Alpha; “more than 5 log10” in [6]. Moreover, in the data set on SARS-CoV-2 JN.1.1, the “decrease of viral yield in cell culture supernatant” value is “more than 5 log10”. In addition, the “toxicity as reflected by animal body weight change” value in data set [5] was “Negligible toxicity”.

Consider `N#C[C@H](C[C@@H]1CCNC1=O)NC(=O)[C@@H]1C[C@@H](OC(F)F)CN1C(=O)[C@@H](NC(=O)C1(F)CC1)C1CCCCC1` [H136], for which half-maximal inhibition at SARS-CoV-2 M^pro (mean ± SEM) (IC50) was put at 43.4 ± 2 nM.

On SARS-CoV-2 M^pro, `CO[C@@H]1C[C@@H](C(=O)N[C@H](C#N)C[C@@H]2CCNC2=O)N(C(=O)[C@@H](NC(=O)OC(C)(C)C)C(C)(C)C)C1` [H138] registered a half-inhibitory concentration (IC50) of 2960 nM.

Turning to `CC(C)(C)OC(=O)N[C@H](C(=O)N1C[C@H](OCc2ccccc2)C[C@H]1C(=O)N[C@H](C#N)C[C@@H]1CCNC1=O)C(C)(C)C` [H139], it took 3410 nM to reach half-maximal inhibition on SARS-CoV-2 M^pro (IC50).

Regarding `CC(C)(C)OC(=O)N[C@H](C(=O)N1C[C@H](Oc2ccccc2)C[C@H]1C(=O)N[C@H](C#N)C[C@@H]1CCNC1=O)C(C)(C)C` [H140], at SARS-CoV-2 M^pro, the half-maximal inhibitory concentration (IC50) stood at 6770 nM. Compared with the last compound, the IC50 is about 2-fold higher.

`CC(C)(C)OC(=O)N1C[C@H](OC(F)F)C[C@@H]1C(=O)N1C[C@H](OC(F)F)C[C@H]1C(=O)N[C@H](C#N)C[C@@H]1CCNC1=O` [H141]: the IC50 at SARS-CoV-2 M^pro is greater than 25000 nM.

In the case of `CC(C)(C)[C@H](NC(=O)C(F)(F)F)C(=O)N1C[C@H]2[C@@H]([C@H]1C(=O)N[C@H](C#N)C[C@@H]1CCNC1=O)C2(C)C` [PF-07321332, nirmatrelvir, reference compound], the “body weight of infected mice” value in data set [2] (150 mg/kg daily intraperitoneal, […]) is recorded as “body weight benefits”. For the same compound, the “mice protected from death” value in data set [2] (mouse, in vivo) was found to be 40%. Further, the “live virus titer in hamster lungs” value in the data set with SARS-CoV-2 [3] ([…], H135 300 mg/kg IP QD, nirmatrelvir 300 mg/kg PO BID, three days, P < 0.001 vs DMSO) is recorded as “significantly reduced”.
